Experimental findings from patent US7736881B2, “Antibacterial and herbicidal compounds and system for screening the same” (University of Utah Research Foundation, priority 2000, dated 2010) are described below.

Entries after “also recorded” stand apart in the source; their conditions may differ.

Assay [1] concerns Strain JC7623 dxs::pCAT53-3 transformed with pLME10 (R. capsulatus dxsB in pET11-A). The assay is described as follows: Screen for antimicrobial agent using strain JC7623 dxs::pCAT53-3 transformed with pLME10 (plate growth). It counts as cell-based, E. coli.
Assay [2] concerns Strain RMC25 electroporated with pLME10 (R. capsulatus dxsB in pET11-A). As to the kind of experiment: Screen for antimicrobial agent using strain RMC25 electroporated with pLME10 (plate growth). The format is cell-based, S. typhimurium.
[3] abbreviates: LB/kan/ME/fosmidomycin, fosmidomycin ~4 μg/mL, ME 50 mg/L, after 1 day.
[4] abbreviates: after 2.5 days, fosmidomycin ~4 μg/mL, ME 50 mg/L.

`O=CN(O)CCCP(=O)(O)O` [fosmidomycin]: the “growth on Plate F” value in assay [1] is listed as “microcolonies”; in assay [2], “colonies”. The “growth on plate F compared with plate C (LB/kan/MVA/arabinose without fosmidomycin)” value in assay [1] and in assay [2] was “equal” in each case. Besides, the “growth on Plate E” value in assay [1] (LB/ka/IPTG/fosmidomycin, fosmidomycin ~4 μg/mL, IPTG 1 mM, after 2.5 days) was “no growth”; in assay [2] (LB/kan/IPTG/fosmidomycin, fosmidomycin ~4 μg/mL, IPTG 1 mM, after 2.5 days), “no growth; also recorded: growth is inhibited”. Further, the “growth on Plate G” value in assay [1] (setting [3]) and in assay [2] (setting [3]) was “colonies” throughout. The “growth on plate G compared with plate D (LB/kan/ME without fosmidomycin)” value in assay [1] (setting [4]) and in assay [2] (setting [4]) was “equal” each time.
